According to publication PMC3622683, “Purification, Gene Cloning, and Biochemical Characterization of a β-Glucosidase Capable of Hydrolyzing Sesaminol Triglucoside from Paenibacillus sp. KB0549” (PLoS ONE, 2013):

Target: T1, rPSTG (recombinant PSTG, STG-hydrolyzing β-glucosidase) (Paenibacillus relictisesami, UniProt D6RVX0)
T1 construct: full-length 753 aa, 83,298 Da, no signal peptide; expressed from pDEST17 in E. coli BL21-AI, HisTrap purified (tag cleavage not mentioned); likely tetramer, 310 kDa; GH3
T1 sequence (D6RVX0 1-753): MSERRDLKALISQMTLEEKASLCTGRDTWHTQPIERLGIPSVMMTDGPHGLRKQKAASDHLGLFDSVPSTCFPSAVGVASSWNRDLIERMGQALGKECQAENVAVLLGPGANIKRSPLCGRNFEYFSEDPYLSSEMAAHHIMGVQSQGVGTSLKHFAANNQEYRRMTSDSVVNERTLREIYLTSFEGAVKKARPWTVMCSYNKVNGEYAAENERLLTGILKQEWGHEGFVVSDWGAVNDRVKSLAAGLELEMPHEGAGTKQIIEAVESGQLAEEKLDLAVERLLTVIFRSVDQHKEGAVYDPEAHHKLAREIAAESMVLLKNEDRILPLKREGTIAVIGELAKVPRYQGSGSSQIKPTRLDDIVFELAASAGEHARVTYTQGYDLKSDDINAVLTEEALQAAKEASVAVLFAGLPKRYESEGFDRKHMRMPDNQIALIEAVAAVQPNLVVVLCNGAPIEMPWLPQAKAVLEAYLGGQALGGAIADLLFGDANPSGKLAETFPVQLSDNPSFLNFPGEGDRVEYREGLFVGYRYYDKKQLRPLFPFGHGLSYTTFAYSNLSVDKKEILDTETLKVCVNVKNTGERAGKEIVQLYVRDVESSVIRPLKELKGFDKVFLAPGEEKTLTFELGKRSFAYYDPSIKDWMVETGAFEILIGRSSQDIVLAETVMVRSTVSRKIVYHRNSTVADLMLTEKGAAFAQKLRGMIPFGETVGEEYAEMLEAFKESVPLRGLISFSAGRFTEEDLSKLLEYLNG
Test: p-nitrophenol release, absorbance at […] nm
Assay type: biochemical
Conditions: pH 7.0, 37°C, potassium phosphate

C[C@H]1O[C@@H](Oc2ccc([N+](=O)[O-])cc2)[C@H](O)[C@@H](O)[C@H]1O [pNP-β-D-fucopyranoside]
Km: > 10 mM
